By IC50 is commonly meant the concentration that inhibits the measured activity by half. As usually defined, the EC50 is the concentration needed to bring the measured effect to its halfway point.

Assay [1] has as its target T1, human estrogen receptor α (Homo sapiens, UniProt P03372).
T1 construct: purchased Panvera
T1 sequence (P03372 1-595): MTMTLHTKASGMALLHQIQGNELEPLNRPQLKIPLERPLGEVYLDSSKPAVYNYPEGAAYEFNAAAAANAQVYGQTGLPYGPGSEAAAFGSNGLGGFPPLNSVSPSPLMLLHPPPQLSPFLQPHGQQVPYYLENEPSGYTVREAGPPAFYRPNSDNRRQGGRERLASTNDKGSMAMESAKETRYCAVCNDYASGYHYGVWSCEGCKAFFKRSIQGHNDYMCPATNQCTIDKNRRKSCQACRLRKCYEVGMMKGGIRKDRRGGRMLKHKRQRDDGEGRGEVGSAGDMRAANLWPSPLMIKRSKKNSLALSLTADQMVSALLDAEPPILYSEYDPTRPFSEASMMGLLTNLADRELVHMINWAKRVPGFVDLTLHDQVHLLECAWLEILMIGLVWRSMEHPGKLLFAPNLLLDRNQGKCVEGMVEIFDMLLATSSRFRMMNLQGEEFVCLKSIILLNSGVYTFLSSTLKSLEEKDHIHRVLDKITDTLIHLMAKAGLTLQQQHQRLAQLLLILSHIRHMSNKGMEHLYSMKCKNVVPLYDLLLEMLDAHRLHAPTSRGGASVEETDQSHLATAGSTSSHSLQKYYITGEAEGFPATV
The assay can be described thus: Estrogen Receptor α Flash Plate Assay. The note with it: displacement of radio-labeled estrogen, FlashPlate; read-out: ERα Binding IC50. As to the method: Estrogen Receptor α Flash Plate Assay
This assay monitors binding of radio-labeled estrogen to the estrogen receptor. It is performed on a BioMek 2000 (Beckman). Plates are read in a scintillation counter (Packard TopCount), with decreased counts an indication of binding of a compound to the receptor. The assay was run according to the procedure described by Allan, et al., Anal. Biochem. (1999), 275(2), 243–247.
On day one, 100 μL of Estrogen Screening Buffer (ESB, Panvera) containing 5 mM dithiothreitol (DTT, Panvera), 0.5 μg mouse anti-estrogen receptor monoclonal antibody (SRA-1010, Stressgen) and 50 ng purified human estrogen receptor α (Panvera) were added to each well of a 96 well FlashPlate Plus plate crosslinked with goat anti-mouse antibodies (NEN Life Sciences). The plate was sealed and incubated at 4° C. overnight.
On day two, each well was washed three times with 200 μL PBS, pH 7.2, at room temperature. To each well was then added 98 μL radio-labeled estrogen (0.5 nM, which equals 6 nCi for a 120 Ci/mmol batch, Amersham), diluted in ESB and 5 mM dithiothreitol (DTT). To individual wells were then added 2.5 μL test compound diluted in 30% (v/v) dimethyl sulfoxide/50 mM HEPES, pH 7.5. The wells were mixed three times by aspiration, the plate sealed and incubated at room temperature for one hour. The wells were then counted for 1 min in a TopCount scintillation counter (Packard).
(§1) Representative compound of the present invention were tested according to the procedure described above for binding to the Estrogen Receptor α and Estrogen Receptor β, with results as listed in Table 6.

For another assay, the target named is T2, hER-β (Homo sapiens, UniProt Q92731).
T2 construct: purchased Panvera
Description: Estrogen Receptor β Fluorescence Polarization Assay. To be noted: displacement of Fluormone ES2, fluorescence polarization; read-out: ERβ Binding IC50.
Excerpt: Estrogen Receptor β Fluorescence Polarization Assay
This assay monitors binding of a fluorescent analog of estrogen (Fluormone ES2, Panvera) to the estrogen receptor. Plates are read in a fluorometer that can be set to polarization mode. A decrease in […] relative to vehicle control is an indication of binding of a compound to the receptor.
It is crucial to avoid introduction of air bubbles into the reaction in each well of the 96 well plate throughout this procedure. (Bubbles on the surface of the reaction disrupt light flow, affecting the polarization reading.) However, it is also crucial to effectively mix the reaction components upon addition to the well.
On ice, a 2× standard mixture of Assay Buffer (Panvera), 10 nM DTT and 40 nM ES2 was prepared. On ice, a 2× reaction mixture of Assay Buffer (Panvera), and 20 nM hER-β (Panvera) and 40 nM ES2 was also prepared.
Dilutions of test compound were prepared in 30% (v/v) dimethyl sulfoxide/50 mM HEPES, pH 7.5. At this point, the dilutions were 40× the final required concentration.
The standard mixture at 50 μL was then added to each well. The reaction mixture at 48 μL was added to all wells. The compound dilution at 2.5 μL was added to the appropriate wells. The reaction mixtures were mixed using a manual pipette, a roll of aluminum foil adhesive cover was placed on the plate and the plate incubated at room temperature for 1 hour.
Each well on the plate was then read in an LjL Analyst with an excitation wavelength of […] and an emission wavelength of 538.
as §1
A general note: In fluorescence polarisation assays a small probe gives low polarisation when free and higher when bound to something large.

The subject of the next assay is MCF-7 cells. Description: MCF-7 Cell Proliferation Assay. The class given is cell-based. The note with it: Homo sapiens, MCF7, 14C-thymidine incorporation; for EC50: agonist mode, read-out: MCF7 Agonist EC50; for IC50: antagonist mode, 10 nM 17β-estradiol added, read-out: MCF7 Antagonist IC50. As to the method:
MCF-7 Cell Proliferation Assay
This assay was run according to the procedure described by Welshons, et al., (Breast Cancer Res. Treat., 1987, 10(2), 169–75), with minor modification.
Briefly, MCF-7 cells (from Dr. C. Jordan, Northwestern University) were maintained in RPMI 1640 phenol red free medium (Gibco) in 10% FBS (Hyclone), supplemented with bovine insulin and non-essential amino acid (Sigma). The cells were initially treated with 4-hydroxytamoxifen (10^−8 M) and let stand at 37° C. for 24 hours. Following this incubation with tamoxifen, the cells were treated with compounds at various concentrations.
Compounds to be tested in the agonist mode were added to the culture media at varying concentrations. Compounds to be treated in the antagonist mode were prepared similarly, and 10 nM 17β-estradiol was also added to the culture media. The cells were incubated for 24 hours at 37° C. Following this incubation, 0.1 μCi of ^14C-thymidine (56mCi/mmol, Amersham) was added to the culture media and the cells were incubated for an additional 24 hours at 37° C. The cells were then washed twice with Hank's buffered salt solution (HBSS) (Gibco) and counted with a scintillation counter. The increase in the ^14C-thymidine in the compound treated cells relative to the vehicle control cells were reported as percent increase in cell proliferation.
(§2) Representative compound of the present invention were tested according to the procedure described in Examples 14 and 15 above, with results as listed in Table. 7.
Background: Uptake of a labelled nucleoside into DNA is a usual measure of proliferation.

In assay [2] the test system is Human Endometrial Ishikawa Cells. The assay can be described thus: Alkaline Phosphatase Assay in Human Endometrial Ishikawa Cells. The class given is cell-based. The note with it: Homo sapiens, Ishikawa, 72 h, alkaline phosphatase activity, 3 days; for EC50: agonist mode, read-out: Ishikawa Agonist EC50; for IC50: antagonist mode, 10 nM 17β-estradiol added, read-out: Ishikawa Antagonist IC50. On the procedure:
Alkaline Phosphatase Assay in Human Endometrial Ishikawa Cells
This assay was run according to the procedure described by Albert et a., Cancer Res, […], 50(11), 330-6-10, with minor modification.
Ishikawa cells (from ATCC) were maintained in DMEM/F12 (1:1) phenol red free medium (Gibco) supplemented with 10% calf serum (Hyclone). 24 hours prior to testing, the medium was changed to DMEM/F12 (1:1) phenol red free containing 2% calf serum.
Compounds to be tested in the agonist mode were added to the culture media at varying concentrations. Compounds to be treated in the antagonist mode were prepared similarly, and 10 nM 17β-estradiol was also added to the culture media. The cells were then incubated at 37° C. for 3 days. On the fourth day, the media was remove, 1 volume of 1× Dilution Buffer (Clontech) was added to the well followed by addition of 1 volume of Assay Buffer (Clontech). The cells were then incubated at room temperature for 5 minutes. 1 volume of freshly prepared Chemiluminescence Buffer (1 volume of chemiluminescent substrate (CSPD) in 19 volume Chemiluminescent Enhancer with final concentration of CSPD at 1.25 mM; Sigma Chemical Co.) was added. The cells were incubated at room temperature for 10 minutes and then quantified on a luminometer. The increase of chemiluminescence over vehicle control was used to calculate the increase in alkaline phosphatase activity.
as §2

T2 sequence (Q92731 whole entry): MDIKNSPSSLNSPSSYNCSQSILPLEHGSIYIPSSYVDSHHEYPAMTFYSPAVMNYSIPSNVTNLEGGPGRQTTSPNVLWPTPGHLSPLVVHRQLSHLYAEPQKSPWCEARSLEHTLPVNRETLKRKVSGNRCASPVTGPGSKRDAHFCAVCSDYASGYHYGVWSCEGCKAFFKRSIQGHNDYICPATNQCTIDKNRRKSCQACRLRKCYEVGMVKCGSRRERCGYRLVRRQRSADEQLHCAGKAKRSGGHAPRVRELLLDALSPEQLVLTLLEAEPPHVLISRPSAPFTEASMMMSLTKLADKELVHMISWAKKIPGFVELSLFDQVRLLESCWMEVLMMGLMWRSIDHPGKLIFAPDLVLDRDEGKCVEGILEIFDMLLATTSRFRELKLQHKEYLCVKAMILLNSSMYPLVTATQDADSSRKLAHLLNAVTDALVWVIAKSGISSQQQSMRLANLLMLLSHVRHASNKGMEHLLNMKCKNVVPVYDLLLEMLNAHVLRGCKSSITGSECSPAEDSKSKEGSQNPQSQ

For the molecule `COc1ccc(C2=C(c3ccc(OC)cc3)CC3C(CC[C@@H]3O)C2)cc1` (stereo partly drawn) [Compound 61, 5,6-Bis-(4-methoxy-phenyl)-2,3,3a,4,7,7a-hexahydro-1H-inden-1S-ol], the IC50 in assay [1] is 8.7 µM; on hER-β, 2 µM; with MCF-7 cells, above 10 µM; in assay [2] it was above 10 µM. Further, the 50% effective concentration (EC50) (in the assay with MCF-7 cells; in assay [2]) was above 10 µM throughout.

With `CCOC(=O)C1CC=C(c2ccc(OC)cc2)C(Cc2ccc(OCCN3CCCCC3)cc2)C1C` (stereo not drawn) [Compound 39], the IC50 (in assay [1]; on hER-β; in the assay on MCF-7 cells; in assay [2]) was above 10 µM throughout. The EC50 (with MCF-7 cells; in assay [2]) was above 10 µM in each case.

For the origin of these results see patent US7183445B2, “Cyclohexyl derivatives as selective estrogen receptor modulators” (Janssen Pharmaceutica N.V, priority 2004, dated 2007).
